According to patent US20160237450A1, “METHOD FOR ENHANCING DROUGHT TOLERANCE IN PLANTS” (Plant Response Biotech S.L., priority 2015, published 2016):

How the values were obtained:
Type in all cases: in vivo
[1] = test system: cucumber plants ('Marketer'); assay: Cucumber plant survival under extreme drought
Protocol: (§1) For each drought or limited water experiment 480 seeds (of either pepper, barley, tomato, cucumber or corn) were sown, producing 384 plants in 512 cm^3 pots (4 plants per pot). Plants were grown under chamber conditions at 21° C. for 3 weeks. Then, the plants were moved to a greenhouse, where average temperature was 25° C. to 28° C. Spray and irrigation treatments as described herein were done when the plants had two extended leaves and the next pair of leaves were coming up.
(§2) Treatments: Twelve pots (containing 48 plants) were irrigated with 40 ml of either: water, 0.1 g/L TMAO di-hydrate solution, 1.0 g/L TMAO di-hydrate solution, or 5.5 g/L TMAO di-hydrate solution. Another set of 12 pots containing 48 plants were sprayed with 40 ml of either water (3.3 ml in average per pot), a solution containing 0.1 g/L TMAO di-hydrate solution, 1.0 g/L TMAO di-hydrate, or 5 g/L, or 10 g/L TMAO di-hydrate. Further sets of 12 pots containing 48 plants were both sprayed with each initial solution TMAO di-hydrate solution and further irrigated with the same TMAO di-hydrate solutions used in the control water sprayed plants. All pots were also watered with 40 ml of water. The sprayed plants were watered with the same volume of water as the “irrigated plants). The pots were located on plastic glass to maintain constant moisture and to avoid liquid spillage during watering. Trays containing the pots were located on greenhouse tables. The distribution of the trays on the table and the position on the pots in the tray was changed every week to avoid position effects.
(§3) After the treatments described above, the plants were not watered until the pots completely lost their moisture, taking about 4 to 8 days depending on the season, at which point the plants were extremely wilted for the extreme drought experiments. The plants were then watered once with solutions containing the different amounts of TMAO di-hydrate (0.1 g/L, 1.0 g/L, 5 g/L, or 10 g/L) or just water, after which the plants were left to lose their moisture completely again for three consecutive cycles of watering after wilting. For the “extreme drought” experiments plants were allowed to wilt severely before watering and then the plant survival rate was recorded and analyzed.
TMAO di-hydrate applied exogenously which increases the endogenous content of TMAO as if the plants were overexpressing an FMO protein at least 4 times increases plant survival in cucumber under extreme drought conditions. ‘Marketer’ cucumber seeds were sown, grown and treated as described above.

[2] = test system: tomato plants ('Moneymaker'); assay: Tomato plant survival under extreme drought
Protocol: as §1, §2, §3
TMAO di-hydrate applied exogenously, which increases the endogenous content of TMAO as if the plants were overexpressing an FMO protein at least 4 times, increases tomato plant survival under extreme drought conditions, where plants were allowed to fully wilt after three water-wilt cycles. Moneymaker tomato seeds were sown, grown and treated as described above. No statistical differences between modes of application (sprayed or TMAO di-hydrate watered) were observed on this experiment.

lettuce plants (Iceberg) = assay: Yield production without drought stress, lettuce; details: 1 g/l spray every 4 weeks for 3 months, no drought stress
Protocol: In order to determine the plant yield productivity under normal conditions, ‘Sabrina’, ‘Candonga’ and ‘Fortuna’ strawberry varieties, leek, lettuce, “Iceberg” variety, broccoli “Parthenon” variety, celery or kohlrabi plants, were grown under standard production conditions and 120 plants of each variety per treatment (where the treatment was a control comprising standard watering or 1 g/L of TMAO di-hydrate spray every four weeks) were analyzed. Plants were located in four (4) different positions for each group of 30 plants from the same treatment. Fruits, leaves or roots were harvested from individual plants and total weight was determined for each plant.
Root or leaves yield was determined in the plants treated with 1 g/l of TMAO di-hydrate or water as described above in order to evaluate the trade-off costs of the treatment with no drought stress.

[3] = test system: tomato plants ('Moneymaker'); assay: Tomato stem size under limited water irrigation
Protocol: as §1, §2
After the treatments described above, for the “limited water” experiments plants were watered with 20 ml of water or solution instead of 40 ml when the first plants started to wilt. The stem length was recorded as analyzed for the limited water experiments in which the plants are watered with 50-30% of the water that the plant requires.
TMAO di-hydrate applied exogenously which increases the endogenous content of TMAO as if the plants were overexpressing an FMO protein at least 4 times increases plant stem size in tomato under limited water irrigation. ‘Moneymaker’ tomato seeds were sown, grown and treated as described.

[4] = irrigation 0.1 g/L, initial spray 0.1 g/L
[5] = irrigation 0.1 g/L, initial spray 1 g/L
[6] = irrigation 0.1 g/L, initial spray 5 g/L
[7] = irrigation 0.1 g/L, initial spray water
[8] = irrigation 1 g/L, initial spray 0.1 g/L
[9] = irrigation 1 g/L, initial spray 1 g/L
[10] = irrigation 1 g/L, initial spray 5 g/L
[11] = irrigation 1 g/L, initial spray water
[12] = irrigation 5 g/L, initial spray 0.1 g/L
[13] = irrigation 5 g/L, initial spray 1 g/L
[14] = irrigation 5 g/L, initial spray 5 g/L
[15] = irrigation 5 g/L, initial spray water
[16] = irrigation all regimes, initial spray 0.1 g/L
[17] = irrigation all regimes, initial spray 1 g/L
[18] = irrigation all regimes, initial spray 5 g/L
[19] = irrigation water, initial spray 0.1 g/L
[20] = irrigation water, initial spray 1 g/L
[21] = irrigation water, initial spray 5 g/L

`C[N+](C)(C)[O-].O.O` [TMAO di-hydrate, trimethylamine N-oxide di-hydrate] was tested, and the “SURVIVAL RATE (%)” value [1, 4] was 82.9 ± 7.4%, the “SURVIVAL RATE (%)” value [1, 5] was 91.6 ± 7.4% and the “SURVIVAL RATE (%)” value [1, 6] was 95.8 ± 7.4%. For the same compound, the “SURVIVAL RATE (%)” value [1, 7] was 45.8 ± 7.4%, the “SURVIVAL RATE (%)” value [1, 8] was 91.6 ± 5.9% and the “SURVIVAL RATE (%)” value [1, 9] was 91.6 ± 5.9%. The “SURVIVAL RATE (%)” value [1, 10] was 91.6 ± 5.9%, the “SURVIVAL RATE (%)” value [1, 11] was 87.5 ± 5.9% and the “SURVIVAL RATE (%)” value [1, 12] was 75.0 ± 7.2%. The “SURVIVAL RATE (%)” value [1, 13] was 95.8 ± 7.2%, the “SURVIVAL RATE (%)” value [1, 14] was 95.8 ± 7.2% and the “SURVIVAL RATE (%)” value [1, 15] was 66.6 ± 7.2%. For the same compound, the “SURVIVAL RATE (%)” value [1, 16] was 80.1 ± 3.4%, the “SURVIVAL RATE (%)” value [1, 17] was 92.7 ± 3.4% and the “SURVIVAL RATE (%)” value [1, 18] was 94.7 ± 3.4%. For the same compound, the “SURVIVAL RATE (%)” value [1, 19] was 83.3 ± 7.2%, the “SURVIVAL RATE (%)” value [1, 20] was 91.6 ± 7.2% and the “SURVIVAL RATE (%)” value [1, 21] was 95.8 ± 7.2%. The “appearance of treated plants compared to untreated control” value ([2]; irrigated with 5.5 g/L, 24 hours after drought recovery (FIG. 9)) was “extremely healthy”, the “SURVIVAL RATE (%)” value [2, 4] was 12.5 ± 8.5% and the “SURVIVAL RATE (%)” value [2, 5] was 41.6 ± 8.5%. The “SURVIVAL RATE (%)” value [2, 6] was 68.9 ± 8.5%, the “SURVIVAL RATE (%)” value [2, 7] was 16.6 ± 8.5% and the “SURVIVAL RATE (%)” value [2, 8] was 0.0 ± 7.5%. For the same compound, the “SURVIVAL RATE (%)” value [2, 9] was 29.1 ± 7.5%, the “SURVIVAL RATE (%)” value [2, 10] was 33.3 ± 7.5% and the “SURVIVAL RATE (%)” value [2, 11] was 4.1 ± 7.5%. For the same compound, the “SURVIVAL RATE (%)” value [2, 12] was 12.5 ± 8.0%, the “SURVIVAL RATE (%)” value [2, 13] was 16.6 ± 8.0% and the “SURVIVAL RATE (%)” value [2, 14] was 50.0 ± 8.0%. The “SURVIVAL RATE (%)” value [2, 15] was 8.3 ± 8.0%, the “SURVIVAL RATE (%)” value [2, 16] was 12.5 ± 4.1% and the “SURVIVAL RATE (%)” value [2, 17] was 37.5 ± 4.1%. For the same compound, the “SURVIVAL RATE (%)” value [2, 18] was 56.6 ± 4.1%, the “SURVIVAL RATE (%)” value [2, 19] was 29.1 ± 9.1% and the “SURVIVAL RATE (%)” value [2, 20] was 62.5 ± 9.1%. For the same compound, the “SURVIVAL RATE (%)” value [2, 21] was 74.2 ± 9.1%, the “Yield production, % Control” value (lettuce plants (Iceberg)) was 112% and the “AVERAGE STEM SIZE (cm)” value ([3]; initial treatment 0.1 g/L, irrigations 1 g/L) was 12.32 ± 0.56 cm. For the same compound, the “AVERAGE STEM SIZE (cm)” value ([3]; initial treatment 0.1 g/L, irrigations water) was 11.06 ± 0.55 cm, the “AVERAGE STEM SIZE (cm)” value ([3]; initial treatment 1 g/L, irrigations 1 g/L) was 13.77 ± 0.55 cm and the “AVERAGE STEM SIZE (cm)” value ([3]; initial treatment 1 g/L, irrigations water) was 11.59 ± 0.55 cm. The “AVERAGE STEM SIZE (cm)” value ([3]; initial treatment 5 g/L, irrigations 1 g/L) was 14.6 ± 0.55 cm, the “AVERAGE STEM SIZE (cm)” value ([3]; initial treatment 5 g/L, irrigations water) was 14.2 ± 0.56 cm and the “AVERAGE STEM SIZE (cm)” value ([3]; initial treatment water, irrigations 1 g/L) was 12.97 ± 0.55 cm.
